Assay results as given in ChEMBL document CHEMBL5380822, “Design, Synthesis, and Biological Evaluation of Novel Hybrids Containing Dihydrochalcone as Tyrosinase Inhibitors to Treat Skin Hyperpigmentation” (J Med Chem, 2023).
The source made the active and inactive calls. The calls are words filed in the database; no cut-off is given here.

Experiments:
Mushroom tyrosinase [1] = biological target: T1, Mushroom tyrosinase (Agaricus bisporus, UniProt O42713+Q00024+C7FF04+C7FF05); experiment: Inhibition of Agaricus bisporus tyrosinase using L-dopa as substrate preincubated with compound for 20 mins followed by substrate addition measured after 5 mins by absorbance based assay
Mushroom tyrosinase [2] = biological target: T1, Mushroom tyrosinase; experiment: Inhibition of Agaricus bisporus tyrosinase using L-tyrosine as substrate preincubated with compound for 20 mins followed by substrate addition measured after 10 mins by absorbance based assay
B16-F10 [3] = experiment: Cytotoxicity against mouse B16-F10 cells at 50 uM incubated for 72 hrs by MTT assay; format: toxicity, cell-based; settings: b16-f10, 72 h
[4] = biological target: T2, Tyrosinase (Mus musculus) (UniProt P11344); experiment: Inhibition of TYR in alpha-MSH-stimulated mouse B16-F10 cells using L-Dopa as substrate incubated for 24 hrs by absorbance based assay; format: cell-based; settings: dose 5-25 µM
T2 sequence (whole entry): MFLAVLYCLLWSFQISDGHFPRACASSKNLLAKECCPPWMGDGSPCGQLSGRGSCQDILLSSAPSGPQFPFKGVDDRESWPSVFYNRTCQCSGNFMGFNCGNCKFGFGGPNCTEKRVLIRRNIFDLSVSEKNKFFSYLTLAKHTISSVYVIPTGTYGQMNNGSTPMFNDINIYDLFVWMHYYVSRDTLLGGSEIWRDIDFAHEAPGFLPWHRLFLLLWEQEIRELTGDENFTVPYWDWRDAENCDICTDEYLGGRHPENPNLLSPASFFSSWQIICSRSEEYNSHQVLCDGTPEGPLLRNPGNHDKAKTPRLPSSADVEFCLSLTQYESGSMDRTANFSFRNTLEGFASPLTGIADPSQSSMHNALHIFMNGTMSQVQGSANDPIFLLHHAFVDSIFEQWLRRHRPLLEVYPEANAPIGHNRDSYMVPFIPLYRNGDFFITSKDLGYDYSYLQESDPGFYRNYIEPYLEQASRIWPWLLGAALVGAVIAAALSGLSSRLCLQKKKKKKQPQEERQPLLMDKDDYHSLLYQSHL

B16-F10 [5] = experiment: Anti-melanogenic activity against alpha-MSH-stimulated mouse B16-F10 cells assessed as decrease in melanin content incubated for 24 hrs by absorbance based assay; format: functional, cell-based; settings: dose 5-25 µM
A-375 [6] = experiment: Cytotoxicity against human A-375 cells at 50 uM incubated for 72 hrs by MTT assay; format: toxicity, cell-based; settings: a-375, 72 h
[7] = biological target: T3, Tyrosinase (Homo sapiens) (UniProt P14679); experiment: Inhibition of TYR in alpha-MSH-stimulated human A-375 cells using L-Dopa as substrate at 20 uM incubated for 24 hrs by absorbance based assay; format: cell-based
T3 sequence (whole entry): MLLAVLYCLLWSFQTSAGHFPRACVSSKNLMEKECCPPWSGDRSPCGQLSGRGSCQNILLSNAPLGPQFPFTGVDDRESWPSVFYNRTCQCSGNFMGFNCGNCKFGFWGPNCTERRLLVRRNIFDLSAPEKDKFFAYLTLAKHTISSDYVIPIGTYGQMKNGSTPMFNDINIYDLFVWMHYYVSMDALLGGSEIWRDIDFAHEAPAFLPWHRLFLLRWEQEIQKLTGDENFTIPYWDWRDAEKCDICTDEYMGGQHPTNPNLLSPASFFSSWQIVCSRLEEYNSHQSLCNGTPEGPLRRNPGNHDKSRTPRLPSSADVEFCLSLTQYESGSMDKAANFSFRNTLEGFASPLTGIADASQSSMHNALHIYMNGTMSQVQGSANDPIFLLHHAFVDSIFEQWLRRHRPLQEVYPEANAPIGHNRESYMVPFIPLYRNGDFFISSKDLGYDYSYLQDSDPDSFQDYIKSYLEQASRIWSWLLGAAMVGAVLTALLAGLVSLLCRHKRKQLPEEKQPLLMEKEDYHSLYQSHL

A-375 [8] = experiment: Anti-melanogenic activity against alpha-MSH-stimulated human A-375 cells assessed as decrease in melanin content at 20 uM incubated for 24 hrs by absorbance based assay; format: functional, cell-based
B16-F10 [9] = experiment: Downregulation of TYR in mouse B16-F10 cells incubated for 72 hrs by Western blot analysis; format: functional, cell-based; settings: dose 0.1-2 µM
B16-F10 [10] = experiment: Downregulation of MiTF level in mouse B16-F10 cells incubated for 72 hrs by Western blot analysis; format: functional, cell-based; settings: dose 0.1-2 µM
[11] = Permeability in pig skin explant Franz diffusion cell model assessed as compound remaining intradermal at 2 mg/ml, TOPp measured after 2 hrs by HPLC analysis; format: ADME, tissue-based, Sus scrofa, Skin of body; settings: topical_or_ocular
[12] = Permeability in pig skin explant Franz diffusion cell model assessed as compound remaining intradermal at 2 mg/ml, TOPp measured after 4 hrs by HPLC analysis; format: ADME, tissue-based, Sus scrofa, Skin of body; settings: topical_or_ocular
[13] = Permeability in pig skin explant Franz diffusion cell model assessed as compound remaining transdermal at 2 mg/ml, TOPp measured for 0.5 to 24 hrs by HPLC analysis; format: ADME, tissue-based, Sus scrofa, Skin of body; settings: topical_or_ocular, time 0.5-24 hrs
[14] = Drug distribution in pig skin epidermis at 2 mg/ml, TOPp measured after 2 hrs by OrbiSIMS imaging analysis; format: ADME, tissue-based, Sus scrofa; settings: topical_or_ocular
Cavia porcellus [15] = experiment: Anti-melanogenic activity in guinea pig model of UV-induced skin pigmentation assessed as inhibition of melanin production administered topically for 2 weeks measured after 3 days by Fontana-Masson staining based analysis; format: functional, organism-based; settings: time 17.0 day
Cavia porcellus [16] = experiment: Anti-melanogenic activity in guinea pig model of UV-induced skin pigmentation assessed as reduction in melanin production at 1 mM administered topically as PG formulation for 2 weeks measured after 3 days by Fontana-Masson staining based analysis; format: functional, organism-based; settings: time 17.0 day
Cavia porcellus [17] = experiment: Anti-melanogenic activity in guinea pig model of UV-induced skin pigmentation assessed as reduction in melanin production at 1 mM administered topically as CP formulation for 2 weeks measured after 3 days by Fontana-Masson staining based analysis; format: functional, organism-based; settings: time 17.0 day
Cavia porcellus [18] = experiment: Anti-melanogenic activity in guinea pig model of UV-induced skin pigmentation assessed as healing of scorching skin administered topically for 2 weeks measured after 3 days by Fontana-Masson staining based analysis; format: functional, organism-based; settings: dose 0.5-1 mM, time 17.0 day

| Structure (SMILES) | IC50 (Mushroom tyrosinase [1]) | IC50 (Mushroom tyrosinase [2]) | further results |
| --- | --- | --- | --- |
| Cc1ccccc1C(=O)CCc1ccc(O)cc1O | 0.239 µM | 0.123 µM | – |
| COc1ccc(C(=O)CCc2ccc(O)cc2)cc1 | > 10 µM | > 10 µM | – |
| O=C(CCc1ccc(O)cc1O)c1ccc(Cl)cc1Cl | 0.189 µM | 0.119 µM | – |
| Cc1cccc(C(=O)CCc2ccc(O)cc2O)c1 | 0.189 µM | 0.133 µM | – |
| O=C(CCc1ccc(O)cc1O)c1ccccc1 | 0.625 µM | 0.183 µM | – |
| COc1cc(C(=O)CCc2ccc(O)cc2O)ccc1O | 0.165 µM | 0.054 µM | Activity (B16-F10 [3]): Non-Toxic; inhibition [4]: Dose-Dependent Effect; Activity (B16-F10 [5]): Dose-Dependent Effect; Activity (A-375 [6]): Non-Toxic; inhibition [7]: Active; Activity (A-375 [8]): Active |
| COc1ccc(CCC(=O)c2ccc(O)cc2O)c(OC)c1OC | > 10 µM | > 10 µM | – |
| COc1cc(CCC(=O)c2ccc(O)cc2O)cc(OC)c1OC | > 10 µM | > 10 µM | – |
| O=C(CCc1ccc(O)cc1O)c1ccc(-c2ccccc2)cc1 | 1.431 µM | 0.331 µM | – |
| COc1ccc(C(=O)CCc2ccc(OC)cc2OC)cc1 | > 10 µM | > 10 µM | – |
| COc1ccc(C(=O)CCc2ccccc2O)cc1 | > 10 µM | > 10 µM | – |
| O=C(CCc1ccc(O)cc1O)c1ccc(O)cc1 | 0.212 µM | 0.072 µM | – |
| COc1ccc(C(=O)CCc2ccc(O)cc2O)cc1O | 0.245 µM | 0.069 µM | – |
| CC(C)c1ccc(C(=O)CCc2ccc(O)cc2O)cc1 | 0.644 µM | 0.232 µM | – |
| O=C(CCc1ccc(O)cc1O)c1ccc(Br)cc1 | 0.184 µM | 0.11 µM | – |

Second part, led by results:

| IC50 (Mushroom tyrosinase [1]) | IC50 (Mushroom tyrosinase [2]) | Structure (SMILES) | further results |
| --- | --- | --- | --- |
| > 10 µM | > 10 µM | COc1ccc(C(=O)CCc2ccccc2O)c(O)c1 | – |
| > 10 µM | > 10 µM | COc1cccc(CCC(=O)c2ccc(O)cc2O)c1OC | – |
| > 10 µM | > 10 µM | COc1ccc(CCC(=O)c2ccc(O)cc2O)cc1OC | – |
| > 10 µM | > 10 µM | COc1ccc(CCC(=O)c2ccc(O)cc2O)c(OC)c1 | – |
| 0.183 µM | 0.069 µM | COc1ccc(C(=O)CCc2ccc(O)cc2O)c(O)c1 | – |
| > 10 µM | > 10 µM | O=C(CCc1cccc(O)c1)c1ccc(O)cc1O | – |
| > 10 µM | > 10 µM | COc1ccc(CCC(=O)c2ccc(O)cc2O)cc1O | – |
| > 10 µM | > 10 µM | O=C(CCc1ccc(O)c(O)c1)c1ccc(O)cc1O | – |
| 0.286 µM | 0.069 µM | O=C(CCc1ccc(O)cc1O)c1ccccc1O | – |
| > 10 µM | > 10 µM | COc1ccc(CCC(=O)c2ccc(O)cc2O)c(O)c1 | – |
| 0.171 µM | 0.089 µM | COc1ccc(C(=O)CCc2ccc(O)cc2O)cc1 | – |
| > 10 µM | > 10 µM | Cc1ccccc1CCC(=O)c1ccc(O)cc1O | – |
| 0.064 µM | 0.05 µM | O=C(CCc1ccc(O)cc1O)c1ccc(O)cc1O | Activity (B16-F10 [3]): Non-Toxic; inhibition [4]: Dose-Dependent Effect; Activity (B16-F10 [5]): Dose-Dependent Effect; Activity (B16-F10 [9]): Dose-Dependent Effect; Activity (B16-F10 [10]): Dose-Dependent Effect; Activity (A-375 [6]): Toxic; inhibition [7]: Active; Activity (A-375 [8]): Active; Activity [11]: 26.77%; Activity [12]: 3.56%; Activity [13]: 1.2%; Drug uptake [14]: Active; Activity (Cavia porcellus [15]): Dose-Dependent Effect; Activity (Cavia porcellus [16]): Active; Activity (Cavia porcellus [17]): Active; Activity (Cavia porcellus [18]): Dose-Dependent Effect |
| > 10 µM | > 10 µM | O=C(CCc1ccc(O)cc1)c1ccc(O)cc1O [DAVIDIGENIN] | – |
| > 10 µM | > 10 µM | COc1ccc(C(=O)CCc2ccc(O)cc2)c(O)c1 | – |
| > 10 µM | > 10 µM | O=C(CCc1cccc([N+](=O)[O-])c1)c1ccc(O)cc1O | – |
| > 10 µM | > 10 µM | COc1cccc(CCC(=O)c2ccc(O)cc2O)c1 | – |
| > 10 µM | > 10 µM | O=C(CCc1ccccc1O)c1ccc(O)cc1O | – |
